US20090149458A1, “PYRROLO[3,2-d]PYRIMIDINE COMPOUNDS AND THEIR USE AS PI3 KINASE AND mTOR KINASE INHIBITORS” (Wyeth, priority 2007, published 2009)
pIC50: −log10 of the molar value.

Columns and labels:
PI3 Kinase γ = PI3 Kinase γ (Homo sapiens, UniProt P48736); assay: PI3K fluorescence polarization assay (PI3 Kinase γ); assay type: biochemical; conditions: 20 uM PIP2, 25 uM ATP
Method: Buffers: Reaction Buffer: 20 mM HEPES pH7.5, 2 mM MgCl2, 0.05% CHAPS, and 0.01% bME (added fresh); STOP/detection Buffer: 100 mM HEPES pH7.5, 4 mM EDTA, 0.05% CHAPS. STOCKS: ATP 20 mM in H2O; PIP2 (diC8, Echelon cat# P-4508) 1 mM in H2O MW=856.5; GST-murine GRP 1.5 mg/ml in 17% glycerol; Red detector probe-Echelon (TAMRA) 2.5 uM. Plate: Nunc 384 well black polypropylene fluor. Plate.
Assay: The assay is run by putting 9.5 ul of freshly diluted enzyme (in “reaction buffer”) per well, then 0.5 ul of diluted drug or DMSO mixing. Then 10 ul of substrate is added to start the reaction. The mixture is incubated 30-60 minutes, room temp, then stopped with 20 ul of stop/detector mix. The substrate solution, is 40 μM PIP2 and 50 uM ATP in reaction buffer. Addition of 10 ul of substrate to each well starts the reaction. This is 20 uM PIP2, 25 uM ATP final in reaction.
Stop/detector mix: 10 nM TAMRA detector, 40 nM GST-GRP in STOP/detection buffer. To stop reaction: add 20 ul Stop/detector mix per well and mix well. Wait 90-110 minutes before reading plate. Plates are read on Perkin-Elmer Envision plate readers with filters for Tamra. Keep Red probe solutions dark. This procedure is adapted from Echelon Biosciences Inc procedure for their PI3-Kinase fluorescence polarization activity Assay kit Product number K-1100.

human TOR = target: T1, human TOR (Homo sapiens, UniProt P42345); assay: human TOR kinase assay with purified enzyme, DELFIA format; assay type: biochemical; conditions: FLAG-TOR, 100 μM ATP, His6-S6K substrate;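 note: 2 h kinase reaction at room temperature, phosphorylation of S6K at T389 detected with a europium-labelled antibody after plate capture, DMSO vehicle as control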
T1 construct: FLAG

PI3 Kinase α = PI3 Kinase α (Homo sapiens, UniProt P42336); assay: PI3K fluorescence polarization assay (PI3 Kinase α); assay type: biochemical; conditions: 20 uM PIP2, 25 uM ATP;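 note: enzyme reaction with inhibitor or DMSO control, 30–60 min at room temperature, stopped by EDTA, then TAMRA detector with GST-GRP fluorescence polarization read after 90–110 min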
PI3 Kinase α, sequence (P42336 whole entry): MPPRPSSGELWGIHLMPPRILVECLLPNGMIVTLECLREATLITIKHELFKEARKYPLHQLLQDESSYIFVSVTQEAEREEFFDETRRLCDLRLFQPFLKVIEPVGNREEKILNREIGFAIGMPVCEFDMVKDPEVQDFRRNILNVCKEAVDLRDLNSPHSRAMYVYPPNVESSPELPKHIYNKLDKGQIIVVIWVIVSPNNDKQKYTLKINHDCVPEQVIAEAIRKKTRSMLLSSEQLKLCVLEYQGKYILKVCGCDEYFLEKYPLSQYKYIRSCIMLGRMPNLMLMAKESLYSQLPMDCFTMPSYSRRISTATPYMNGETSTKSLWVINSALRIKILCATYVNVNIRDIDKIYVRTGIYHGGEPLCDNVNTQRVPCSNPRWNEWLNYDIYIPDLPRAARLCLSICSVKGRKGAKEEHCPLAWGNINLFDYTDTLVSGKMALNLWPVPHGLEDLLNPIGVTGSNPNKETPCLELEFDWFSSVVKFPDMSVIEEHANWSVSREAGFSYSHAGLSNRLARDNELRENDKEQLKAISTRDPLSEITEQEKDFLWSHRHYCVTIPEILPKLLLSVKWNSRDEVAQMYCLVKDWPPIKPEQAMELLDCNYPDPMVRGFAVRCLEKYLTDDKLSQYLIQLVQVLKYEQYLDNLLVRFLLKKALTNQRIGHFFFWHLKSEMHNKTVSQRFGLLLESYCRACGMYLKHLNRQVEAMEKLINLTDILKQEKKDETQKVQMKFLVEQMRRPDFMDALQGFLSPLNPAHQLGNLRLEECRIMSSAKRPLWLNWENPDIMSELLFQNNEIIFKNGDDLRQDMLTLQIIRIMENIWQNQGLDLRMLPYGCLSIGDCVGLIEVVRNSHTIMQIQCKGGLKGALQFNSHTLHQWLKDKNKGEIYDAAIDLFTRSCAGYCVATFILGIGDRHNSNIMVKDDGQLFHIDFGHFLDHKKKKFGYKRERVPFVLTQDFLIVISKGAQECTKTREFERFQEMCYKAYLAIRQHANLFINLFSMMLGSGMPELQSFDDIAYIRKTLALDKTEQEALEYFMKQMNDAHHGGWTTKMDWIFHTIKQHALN
PI3 Kinase α, sequence (P27986 whole entry partner): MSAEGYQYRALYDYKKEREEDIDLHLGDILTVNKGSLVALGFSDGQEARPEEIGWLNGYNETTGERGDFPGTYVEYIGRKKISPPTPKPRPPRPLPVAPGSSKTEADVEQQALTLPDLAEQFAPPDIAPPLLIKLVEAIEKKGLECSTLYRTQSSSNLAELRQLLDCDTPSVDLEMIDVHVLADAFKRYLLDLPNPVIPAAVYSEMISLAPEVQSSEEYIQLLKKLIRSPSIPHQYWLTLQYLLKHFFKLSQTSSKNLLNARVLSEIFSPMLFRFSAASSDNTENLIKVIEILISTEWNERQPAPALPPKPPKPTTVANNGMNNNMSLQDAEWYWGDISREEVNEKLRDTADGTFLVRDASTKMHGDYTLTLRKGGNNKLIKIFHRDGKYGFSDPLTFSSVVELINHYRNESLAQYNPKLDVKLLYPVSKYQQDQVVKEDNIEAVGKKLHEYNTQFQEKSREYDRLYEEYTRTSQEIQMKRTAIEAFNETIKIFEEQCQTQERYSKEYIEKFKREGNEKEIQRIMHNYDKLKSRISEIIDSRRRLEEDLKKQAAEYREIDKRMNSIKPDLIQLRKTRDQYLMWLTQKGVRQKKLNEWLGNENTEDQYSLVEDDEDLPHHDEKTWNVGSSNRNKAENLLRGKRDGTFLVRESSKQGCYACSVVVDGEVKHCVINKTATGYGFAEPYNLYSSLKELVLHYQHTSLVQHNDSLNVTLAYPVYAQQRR

[1] = system: acute lymphoblastic leukemia xenograft; conditions: NOS/SCID xenograft mouse model of acute lymphoblastic leukemia; Teachey et al, Blood 2006; cited from earlier work

PI3 Kinase γ, sequence (P48736 whole entry): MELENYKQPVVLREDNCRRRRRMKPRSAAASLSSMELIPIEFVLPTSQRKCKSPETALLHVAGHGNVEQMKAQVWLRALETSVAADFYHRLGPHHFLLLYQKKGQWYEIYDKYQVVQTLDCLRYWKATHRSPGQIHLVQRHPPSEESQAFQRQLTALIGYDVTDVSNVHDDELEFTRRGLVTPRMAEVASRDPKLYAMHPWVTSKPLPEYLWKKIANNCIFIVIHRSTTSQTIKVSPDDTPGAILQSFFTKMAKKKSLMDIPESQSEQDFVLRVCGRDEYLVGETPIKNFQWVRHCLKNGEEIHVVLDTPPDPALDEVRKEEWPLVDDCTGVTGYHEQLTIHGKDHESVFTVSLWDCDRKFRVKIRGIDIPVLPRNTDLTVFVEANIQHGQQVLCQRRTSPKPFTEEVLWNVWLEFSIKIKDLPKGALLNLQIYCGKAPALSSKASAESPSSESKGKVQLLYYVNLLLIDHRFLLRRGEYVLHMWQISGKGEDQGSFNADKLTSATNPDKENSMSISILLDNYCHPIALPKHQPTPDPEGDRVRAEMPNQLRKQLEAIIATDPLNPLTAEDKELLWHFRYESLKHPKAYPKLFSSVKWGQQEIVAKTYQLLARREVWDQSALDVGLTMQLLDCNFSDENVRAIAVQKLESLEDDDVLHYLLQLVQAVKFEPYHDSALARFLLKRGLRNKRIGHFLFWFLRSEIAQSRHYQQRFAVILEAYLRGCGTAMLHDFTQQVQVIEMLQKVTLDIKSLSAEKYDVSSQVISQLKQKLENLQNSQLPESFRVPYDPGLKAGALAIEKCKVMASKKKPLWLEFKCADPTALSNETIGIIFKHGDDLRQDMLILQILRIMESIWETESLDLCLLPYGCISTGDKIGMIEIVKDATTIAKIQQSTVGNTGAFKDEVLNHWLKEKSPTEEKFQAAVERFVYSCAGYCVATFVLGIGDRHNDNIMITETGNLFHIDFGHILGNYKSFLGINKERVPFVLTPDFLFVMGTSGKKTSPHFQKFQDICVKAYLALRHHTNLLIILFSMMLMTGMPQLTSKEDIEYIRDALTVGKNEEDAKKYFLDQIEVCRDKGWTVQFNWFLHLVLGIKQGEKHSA

Row | SMILES | pIC50 (PI3 Kinase γ) | pIC50 (human TOR) | pIC50 (PI3 Kinase α) | activity in xenograft model [1]
1 | OCc1cccc(-c2nc(N3CCOCC3)c3[nH]cc(CN4CCN(c5ncccn5)CC4)c3n2)c1 [Example 14] | 5.35 | 5.66 | 7.05 | 
2 | CC(C)(C)OC(=O)NCCN1CCC(c2c[nH]c3c(N4CCOCC4)nc(-c4cccc(O)c4)nc23)CC1 [Example 36, tert-Butyl (2-{4-[2-(3-hydroxyphenyl)-4-morpholin-4-yl-5H-pyrrolo[3,2-d]pyrimidin-7-yl]piperidin-1-yl}ethyl)carbamate] | 5.76 | 6.24 | 6.65 | 
3 | O=C1COCCN1c1nc(-c2cccc(O)c2)nc2cc[nH]c12 [Example 48, 4-[2-(3-hydroxyphenyl)-5H-pyrrolo[3,2-d]pyrimidin-4-yl]morpholin-3-one] | 5.70 | 6.30 | 5.93 | 
4 | CNC(=O)Nc1ccc(-c2nc(N3CCOCC3)c3[nH]ccc3n2)cc1 [Example 6, 1-methyl-3-[4-(4-morpholin-4-yl-5H-pyrrolo[3,2-d]pyrimidin-2-yl)phenyl]urea] | 5.30 | 6.66 | 5.57 | 
5 | CCN(CC)Cc1c[nH]c2c(N3CCOCC3)nc(-c3cccc(CO)c3)nc12 [Example 13] | 6.09 | 6.59 | 7.55 | 
6 | Oc1cccc(-c2nc(N3CCOCC3)c3[nH]cc(C4CCN(Cc5ccccc5F)CC4)c3n2)c1 [Example 32, 3-{7-[1-(2-fluorobenzyl)piperidin-4-yl]-4-morpholin-4-yl-5H-pyrrolo[3,2-d]pyrimidin-2-yl}phenol] | 5.72 | 6.48 | 6.78 | 
7 | CN(C)Cc1c[nH]c2c(N3CCOCC3)nc(-c3cccc(O)c3)nc12 [Example 18, 3-{7-[(dimethylamino)methyl]-4-morpholin-4-yl-5H-pyrrolo[3,2-d]pyrimidin-2-yl}phenol] | 5.94 | 5.48 | 7.13 | 
8 | OCc1cccc(-c2nc(N3CCOCC3)c3[nH]cc(C4=CCNCC4)c3n2)c1 [Example 24, {3-[4-morpholin-4-yl-7-(1,2,3,6-tetrahydropyridin-4-yl)-5H-pyrrolo[3,2-d]pyrimidin-2-yl]phenyl}methanol] | 5.92 | 5.47 | 6.39 | 
9 | CO[C@H]1C[C@@H]2CC[C@@H](C)[C@@](O)(O2)C(=O)C(=O)N2CCCC[C@H]2C(=O)O[C@H]([C@H](C)C[C@@H]2CC[C@@H](OC(=O)C(C)(CO)CO)[C@H](OC)C2)CC(=O)[C@H](C)/C=C(\C)[C@@H](O)[C@@H](OC)C(=O)[C@H](C)C[C@H](C)/C=C/C=C/C=C/1C [Torisel] |  |  |  | active
10 | Oc1cccc(-c2nc(N3CCOCC3)c3[nH]cc(CN4CCN(c5ncccn5)CC4)c3n2)c1 [Example 20, 3-{4-morpholin-4-yl-7-[(4-pyrimidin-2-ylpiperazin-1-yl)methyl]-5H-pyrrolo[3,2-d]pyrimidin-2-yl}phenol] | 5.17 | 5.70 | 6.37 | 
11 | OCc1cccc(-c2nc(N3CCOCC3)c3[nH]cc(C4=CCN(Cc5ccccc5)CC4)c3n2)c1 [Example 25, {3-[7-(1-benzyl-1,2,3,6-tetrahydropyridin-4-yl)-4-morpholin-4-yl-5H-pyrrolo[3,2-d]pyrimidin-2-yl]phenyl}methanol] | 5.55 | 5.77 | 6.59 | 
12 | CN(C)CCNC(=O)Nc1cccc(-c2nc(N3CCOCC3)c3[nH]ccc3n2)c1 [Example 40, 1-[2-(dimethylamino)ethyl]-3-[3-(4-morpholin-4-yl-5H-pyrrolo[3,2-d]pyrimidin-2-yl)phenyl]urea] | 5.02 | < 5.40 | 5.33 | 
13 | O=C(NCc1cccnc1)Nc1cccc(-c2nc(N3CCOCC3)c3[nH]ccc3n2)c1 [Example 44, 1-[3-(4-morpholin-4-yl-5H-pyrrolo[3,2-d]pyrimidin-2-yl)phenyl]-3-(pyridin-3-ylmethyl)urea] | < 5.00 | < 5.40 | < 5.00 | 
14 | Oc1cccc(-c2nc(N3CCOCC3)c3[nH]cc(C4CCN(Cc5ccc[nH]5)CC4)c3n2)c1 [Example 33, 3-{4-morpholin-4-yl-7-[1-(1H-pyrrol-2-ylmethyl)piperidin-4-yl]-5H-pyrrolo[3,2-d]pyrimidin-2-yl}phenol] | 6.10 | 6.02 | 6.95 | 
15 | Oc1cccc(-c2nc(N3CCOCC3)c3[nH]cc(C4CCN(Cc5ncc[nH]5)CC4)c3n2)c1 [Example 28, 3-{7-[1-(1H-imidazol-2-ylmethyl)piperidin-4-yl]-4-morpholin-4-yl-5H-pyrrolo[3,2-d]pyrimidin-2-yl}phenol] | 6.01 | 5.60 | 6.45 | 
16 | CC(C)CN1CCC(c2c[nH]c3c(N4CCOCC4)nc(-c4cccc(O)c4)nc23)CC1 [Example 29, 3-[7-(1-isobutylpiperidin-4-yl)-4-morpholin-4-yl-5H-pyrrolo[3,2-d]pyrimidin-2-yl]phenol] | 5.72 | 5.50 | 6.30 | 
